Columns and labels:
Type in all cases: in vivo
Crabgrass [1] = assay: pre-emergent herbicidal test; conditions: T
Procedure: (§1) The pre-emergent test was conducted as follows:
(§2) A good grade of top soil was placed in aluminum pans and compactd to a depth of 0.95 to 1.27 cm. from the top of the pan. On the top of the soil was placed a predetermined number of seeds or vegetative propagules of various plant species. The soil required to level fill the pans after seeding or adding vegetative propagules was weighed into a pan. A known amount of the herbicidal active ingredient applied in a solvent or as a wettable powder and the soil were thoroughly mixed, and used as a cover layer for prepared pans. After treatment the pans were moved into a greenhouse bench where they were watered from below as needed to give adequate moisture for germination and growth.
(§3) A herbicidal rating code was used to signify the extent of phytotoxicity of each species. The ratings are defined as follows: […]

Hemp Sesbania [2] = assay: pre-emergent herbicidal test; conditions: R
Procedure: as §1, §2, §3

Panicum Spp [3] = assay: pre-emergent herbicidal test; conditions: S
Procedure: as §1, §2, §3

Rice [4] = assay: pre-emergent herbicidal test; conditions: O
Procedure: as §1, §2, §3

Sorghum [5] = assay: pre-emergent herbicidal test; conditions: P
Procedure: as §1, §2, §3

Soybean [6] = assay: pre-emergent herbicidal test; conditions: L
Procedure: as §1, §2, §3

Sugar Beet [7] = assay: pre-emergent herbicidal test; conditions: M
Procedure: as §1, §2, §3

Wheat [8] = assay: pre-emergent herbicidal test; conditions: N
Procedure: as §1, §2, §3

Wild Buckwheat [9] = assay: pre-emergent herbicidal test; conditions: Q
Procedure: as §1, §2, §3

Crabgrass [10] = assay: post-emergent herbicidal test; conditions: T
Procedure: (§4) The post-emergent tests were conducted as follows:
(§5) The herbicidal active ingredients are applied in spray form to two or three-week old specimens of various plant species. The spray, a solution or wettable powder suspension containing the appropriate rate of herbicidal active ingredient to give the desired test rate and a surfactant, is applied to the plants. The treated plants are placed in a greenhouse and approximately two or four weeks later the effects are observed and recorded. The results are shown in Tables IX and X in which the post-emergent herbicidal rating code is as follows: […]

Hemp Sesbania [11] = assay: post-emergent herbicidal test; conditions: R
Procedure: as §4, §5

Panicum Spp [12] = assay: post-emergent herbicidal test; conditions: S
Procedure: as §4, §5

Rice [13] = assay: post-emergent herbicidal test; conditions: O
Procedure: as §4, §5

Sorghum [14] = assay: post-emergent herbicidal test; conditions: P
Procedure: as §4, §5

Soybean [15] = assay: post-emergent herbicidal test; conditions: L
Procedure: as §4, §5

Sugar Beet [16] = assay: post-emergent herbicidal test; conditions: M
Procedure: as §4, §5

Wheat [17] = assay: post-emergent herbicidal test; conditions: N
Procedure: as §4, §5

Wild Buckwheat [18] = assay: post-emergent herbicidal test; conditions: Q
Procedure: as §4, §5
Further: ranges in brackets are in %.

## CCOC(=N)Cn1c(=O)sc2ccccc21 [Compound 25]
Crabgrass [1]; 0.056 kg/h, 2 WAT
  pre-emergent herbicidal rating: 0 (0-24)
Crabgrass [1]; 0.28 kg/h, 2 WAT
  pre-emergent herbicidal rating: 0 (0-24)
Crabgrass [1]; 1.12 kg/h, 4 WAT
  pre-emergent herbicidal rating: 0 (0-24)
Crabgrass [1]; 5.6 kg/h, 4 WAT
  pre-emergent herbicidal rating: 2 (50-74)
Hemp Sesbania [2]; 0.056 kg/h, 2 WAT
  pre-emergent herbicidal rating: 0 (0-24)
Hemp Sesbania [2]; 0.28 kg/h, 2 WAT
  pre-emergent herbicidal rating: 0 (0-24)
Hemp Sesbania [2]; 1.12 kg/h, 4 WAT
  pre-emergent herbicidal rating: 2 (50-74)
Hemp Sesbania [2]; 5.6 kg/h, 4 WAT
  pre-emergent herbicidal rating: 3 (75-100)
Panicum Spp [3]; 0.056 kg/h, 2 WAT
  pre-emergent herbicidal rating: 0 (0-24)
Panicum Spp [3]; 0.28 kg/h, 2 WAT
  pre-emergent herbicidal rating: 0 (0-24)
Panicum Spp [3]; 1.12 kg/h, 4 WAT
  pre-emergent herbicidal rating: 0 (0-24)
Panicum Spp [3]; 5.6 kg/h, 4 WAT
  pre-emergent herbicidal rating: 0 (0-24)
Rice [4]; 0.056 kg/h, 2 WAT
  pre-emergent herbicidal rating: 0 (0-24)
Rice [4]; 0.28 kg/h, 2 WAT
  pre-emergent herbicidal rating: 0 (0-24)
Rice [4]; 1.12 kg/h, 4 WAT
  pre-emergent herbicidal rating: 0 (0-24)
Rice [4]; 5.6 kg/h, 4 WAT
  pre-emergent herbicidal rating: 1 (25-49)
Sorghum [5]; 0.056 kg/h, 2 WAT
  pre-emergent herbicidal rating: 0 (0-24)
Sorghum [5]; 0.28 kg/h, 2 WAT
  pre-emergent herbicidal rating: 0 (0-24)
Sorghum [5]; 1.12 kg/h, 4 WAT
  pre-emergent herbicidal rating: 0 (0-24)
Sorghum [5]; 5.6 kg/h, 4 WAT
  pre-emergent herbicidal rating: 0 (0-24)
Soybean [6]; 0.056 kg/h, 2 WAT
  pre-emergent herbicidal rating: 0 (0-24)
Soybean [6]; 0.28 kg/h, 2 WAT
  pre-emergent herbicidal rating: 1 (25-49)
Soybean [6]; 1.12 kg/h, 4 WAT
  pre-emergent herbicidal rating: 2 (50-74)
Soybean [6]; 5.6 kg/h, 4 WAT
  pre-emergent herbicidal rating: 3 (75-100)
Sugar Beet [7]; 0.056 kg/h, 2 WAT
  pre-emergent herbicidal rating: 0 (0-24)
Sugar Beet [7]; 0.28 kg/h, 2 WAT
  pre-emergent herbicidal rating: 1 (25-49)
Sugar Beet [7]; 1.12 kg/h, 4 WAT
  pre-emergent herbicidal rating: 1 (25-49)
Sugar Beet [7]; 5.6 kg/h, 4 WAT
  pre-emergent herbicidal rating: 3 (75-100)
Wheat [8]; 0.056 kg/h, 2 WAT
  pre-emergent herbicidal rating: 0 (0-24)
Wheat [8]; 0.28 kg/h, 2 WAT
  pre-emergent herbicidal rating: 0 (0-24)
Wheat [8]; 1.12 kg/h, 4 WAT
  pre-emergent herbicidal rating: 0 (0-24)
Wheat [8]; 5.6 kg/h, 4 WAT
  pre-emergent herbicidal rating: 1 (25-49)
Wild Buckwheat [9]; 0.056 kg/h, 2 WAT
  pre-emergent herbicidal rating: 0 (0-24)
Wild Buckwheat [9]; 0.28 kg/h, 2 WAT
  pre-emergent herbicidal rating: 0 (0-24)
Wild Buckwheat [9]; 1.12 kg/h, 4 WAT
  pre-emergent herbicidal rating: 1 (25-49)
Wild Buckwheat [9]; 5.6 kg/h, 4 WAT
  pre-emergent herbicidal rating: 2 (50-74)

## CCCOC(=N)Cn1c(=O)sc2ccccc21 [Compound 30]
Crabgrass [1]; 0.28 kg/h, 2 WAT
  pre-emergent herbicidal rating: 0 (0-24)
Crabgrass [1]; 1.12 kg/h, 4 WAT
  pre-emergent herbicidal rating: 2 (50-74)
Crabgrass [1]; 5.6 kg/h, 4 WAT
  pre-emergent herbicidal rating: 3 (75-100)
Hemp Sesbania [2]; 0.28 kg/h, 2 WAT
  pre-emergent herbicidal rating: 1 (25-49)
Hemp Sesbania [2]; 1.12 kg/h, 4 WAT
  pre-emergent herbicidal rating: 2 (50-74)
Hemp Sesbania [2]; 5.6 kg/h, 4 WAT
  pre-emergent herbicidal rating: 3 (75-100)
Panicum Spp [3]; 0.28 kg/h, 2 WAT
  pre-emergent herbicidal rating: 0 (0-24)
Panicum Spp [3]; 1.12 kg/h, 4 WAT
  pre-emergent herbicidal rating: 0 (0-24)
Panicum Spp [3]; 5.6 kg/h, 4 WAT
  pre-emergent herbicidal rating: 0 (0-24)
Rice [4]; 0.28 kg/h, 2 WAT
  pre-emergent herbicidal rating: 0 (0-24)
Rice [4]; 1.12 kg/h, 4 WAT
  pre-emergent herbicidal rating: 0 (0-24)
Rice [4]; 5.6 kg/h, 4 WAT
  pre-emergent herbicidal rating: 1 (25-49)
Sorghum [5]; 0.28 kg/h, 2 WAT
  pre-emergent herbicidal rating: 0 (0-24)
Sorghum [5]; 1.12 kg/h, 4 WAT
  pre-emergent herbicidal rating: 0 (0-24)
Sorghum [5]; 5.6 kg/h, 4 WAT
  pre-emergent herbicidal rating: 0 (0-24)
Soybean [6]; 0.28 kg/h, 2 WAT
  pre-emergent herbicidal rating: 0 (0-24)
Soybean [6]; 1.12 kg/h, 4 WAT
  pre-emergent herbicidal rating: 1 (25-49)
Soybean [6]; 5.6 kg/h, 4 WAT
  pre-emergent herbicidal rating: 3 (75-100)
Sugar Beet [7]; 0.28 kg/h, 2 WAT
  pre-emergent herbicidal rating: 1 (25-49)
Sugar Beet [7]; 1.12 kg/h, 4 WAT
  pre-emergent herbicidal rating: 1 (25-49)
Sugar Beet [7]; 5.6 kg/h, 4 WAT
  pre-emergent herbicidal rating: 3 (75-100)
Wheat [8]; 0.28 kg/h, 2 WAT
  pre-emergent herbicidal rating: 0 (0-24)
Wheat [8]; 1.12 kg/h, 4 WAT
  pre-emergent herbicidal rating: 0 (0-24)
Wheat [8]; 5.6 kg/h, 4 WAT
  pre-emergent herbicidal rating: 1 (25-49)
Wild Buckwheat [9]; 0.28 kg/h, 2 WAT
  pre-emergent herbicidal rating: 0 (0-24)
Wild Buckwheat [9]; 1.12 kg/h, 4 WAT
  pre-emergent herbicidal rating: 1 (25-49)
Wild Buckwheat [9]; 5.6 kg/h, 4 WAT
  pre-emergent herbicidal rating: 2 (50-74)

## COC(=N)Cn1c(=O)sc2ccccc21 [Compound 37]
Crabgrass [10]; 1.12 kg/h, 4 WAT
  post-emergent herbicidal rating: 0 (0-24)
Crabgrass [10]; 5.6 kg/h, 4 WAT
  post-emergent herbicidal rating: 1 (25-49)
Hemp Sesbania [11]; 1.12 kg/h, 4 WAT
  post-emergent herbicidal rating: 2 (50-74)
Hemp Sesbania [11]; 5.6 kg/h, 4 WAT
  post-emergent herbicidal rating: 3 (75-99)
Panicum Spp [12]; 1.12 kg/h, 4 WAT
  post-emergent herbicidal rating: 0 (0-24)
Panicum Spp [12]; 5.6 kg/h, 4 WAT
  post-emergent herbicidal rating: 0 (0-24)
Rice [13]; 1.12 kg/h, 4 WAT
  post-emergent herbicidal rating: 0 (0-24)
Rice [13]; 5.6 kg/h, 4 WAT
  post-emergent herbicidal rating: 0 (0-24)
Sorghum [14]; 1.12 kg/h, 4 WAT
  post-emergent herbicidal rating: 0 (0-24)
Sorghum [14]; 5.6 kg/h, 4 WAT
  post-emergent herbicidal rating: 0 (0-24)
Soybean [15]; 1.12 kg/h, 4 WAT
  post-emergent herbicidal rating: 1 (25-49)
Soybean [15]; 5.6 kg/h, 4 WAT
  post-emergent herbicidal rating: 2 (50-74)
Sugar Beet [16]; 1.12 kg/h, 4 WAT
  post-emergent herbicidal rating: 2 (50-74)
Sugar Beet [16]; 5.6 kg/h, 4 WAT
  post-emergent herbicidal rating: 2 (50-74)
Wheat [17]; 1.12 kg/h, 4 WAT
  post-emergent herbicidal rating: 0 (0-24)
Wheat [17]; 5.6 kg/h, 4 WAT
  post-emergent herbicidal rating: 0 (0-24)
Wild Buckwheat [18]; 1.12 kg/h, 4 WAT
  post-emergent herbicidal rating: 2 (50-74)
Wild Buckwheat [18]; 5.6 kg/h, 4 WAT
  post-emergent herbicidal rating: 4 (100)

## COC(=N)Cn1c(=O)sc2ccccc21 [Compound 38]
Crabgrass [10]; 0.28 kg/h, 2 WAT
  post-emergent herbicidal rating: 0 (0-24)
Crabgrass [10]; 1.12 kg/h, 4 WAT
  post-emergent herbicidal rating: 0 (0-24)
Hemp Sesbania [11]; 0.28 kg/h, 2 WAT
  post-emergent herbicidal rating: 0 (0-24)
Hemp Sesbania [11]; 1.12 kg/h, 4 WAT
  post-emergent herbicidal rating: 1 (25-49)
Panicum Spp [12]; 0.28 kg/h, 2 WAT
  post-emergent herbicidal rating: 0 (0-24)
Panicum Spp [12]; 1.12 kg/h, 4 WAT
  post-emergent herbicidal rating: 0 (0-24)
Rice [13]; 0.28 kg/h, 2 WAT
  post-emergent herbicidal rating: 0 (0-24)
Rice [13]; 1.12 kg/h, 4 WAT
  post-emergent herbicidal rating: 1 (25-49)
Sorghum [14]; 0.28 kg/h, 2 WAT
  post-emergent herbicidal rating: 0 (0-24)
Sorghum [14]; 1.12 kg/h, 4 WAT
  post-emergent herbicidal rating: 0 (0-24)
Soybean [15]; 0.28 kg/h, 2 WAT
  post-emergent herbicidal rating: 1 (25-49)
Soybean [15]; 1.12 kg/h, 4 WAT
  post-emergent herbicidal rating: 1 (25-49)
Sugar Beet [16]; 0.28 kg/h, 2 WAT
  post-emergent herbicidal rating: 1 (25-49)
Sugar Beet [16]; 1.12 kg/h, 4 WAT
  post-emergent herbicidal rating: 2 (50-74)
Wheat [17]; 0.28 kg/h, 2 WAT
  post-emergent herbicidal rating: 0 (0-24)
Wheat [17]; 1.12 kg/h, 4 WAT
  post-emergent herbicidal rating: 0 (0-24)
Wild Buckwheat [18]; 0.28 kg/h, 2 WAT
  post-emergent herbicidal rating: 0 (0-24)
Wild Buckwheat [18]; 1.12 kg/h, 4 WAT
  post-emergent herbicidal rating: 2 (50-74)
